Measured values from patent US10844023B2 (Washington University, priority 2017, dated 2020).

Test system: Mfn2 null MEFs
Experiment: Mitochondrial elongation (aspect ratio) fusogenicity assay
Type: cell-based, mouse
Set-up: % long compare to B: dose or concentration left out as unconfirmed
Settings: mitochondrial elongation relative to Cpd B (B01 = 100); Mfn2 null MEFs, compound overnight as printed (FIG. 48)
Text: A cultured murine embryonic fibroblast assay system was used in which mitochondrial elongation (an increase in aspect ratio) reflects enhanced mitochondrial fusion.
A pharmacophore model was generated based on the interactions of HR1 and HR2 domains in the calculated structural model of Mfn2 in the closed conformation. The key features included hydrophobic interactions involving Mfn2 HR1: Val372 and Met376, and aromatic interactions and hydrogen bonding involving Mfn2 HR1 His380. […] A library comprising ˜14 million commercially available compounds was prepared in silico and evaluated using PHASE to fit these criteria. Top ranked hits were clustered, and filtered based on pharmacological properties using Qikprop. The top 55 (see TABLE 4) commercially available small molecules conforming to the model were selected for functional screening and purchased in 1 mg aliquots. […] Images were acquired by confocal microscopy. Each compound was scored for fusogenicity (see e.g., FIG. 24A) and % cell death (see e.g., FIG. 24B).
Cells were excited with 408 nm (Hoechst), […] (MitoTracker Green and Calcein AM, GFP), or 637 nm (TMRE, MitoTracker Orange, Ethidium homodimer-1, and AF594-Dextran) laser diodes. For mitochondrial elongation studies mitochondrial aspect ratio (long axis/short axis) was calculated using automated edge detection and Image J software. Mitochondrial depolarization was calculated as % of green mitochondria visualized on MitoTracker Green and TMRE merged images, expressed as green/(green+yellow mitochondria)×100.

Row | Structure (SMILES) | % long compare to B [%]
1 | CC(Sc1nnc(-c2ccco2)n1-c1ccccc1)C(=O)Nc1sc2c(c1C(N)=O)CCC2 (stereo not drawn) [1-06, 2-(2-{[5-(furan-2-yl)-4-phenyl-4H-1,2,4-triazol-3-yl]sulfanyl}propana-mido)-4H,5H,6H-cyclopenta[b]thiophene-3-carboxamide] | 10
2 | Cn1c(SCC(=O)Nc2sc3c(c2C(N)=O)CCC3)nnc1-c1ccc(F)cc1 [1-A3, 2-(2-{[5-(4-fluorophenyl)-4-methyl-4H-1,2,4-triazol-3-yl]sulfanyl}acetamido)-4H,5H,6H-cyclopenta[b]-thiophene-3-carboxamide] | −10
3 | CC1CCc2c(sc(NC(=O)CSc3nnc4n3CCCCC4)c2C(N)=O)C1 (stereo not drawn) [1-A4, 6-methyl-2-(2-{5H,6H,7H,8H,9H-[1,2,4]triazolo[4,3-a]azepin-3-ylsulfanyl}acetamido)-4,5,6,7-tetrahydro-1-benzothiophene-3-carboxamide] | 2
4 | NC(=O)c1c(NC(=O)CSc2nc(C3CC3)n(-c3ccccc3)n2)sc2c1CCC2 [1-A5, 2-{2-[(5-cyclopropyl-1-phenyl-1H-1,2,4-triazol-3-yl)sulfanyl]acetamido}-4H,5H,6H-cyclopenta[b]thiophene-3-carboxamide] | −6
5 | COc1ccc(-n2ccnc2SC(C)C(=O)Nc2sc3c(c2C(N)=O)CCC3)cc1 (stereo not drawn) [1-A7, 2-(2-{[1-(4-methoxyphenyl)-1H-imidazol-2-yl]sulfanyl}-propanamido)-4H,5H,6H-cyclopenta[b]thiophene-3-carboxamide] | −24
6 | CCn1c(Cc2ccccc2)nnc1SC(C)C(=O)Nc1sc2c(c1C(N)=O)CCC2 (stereo not drawn) [1-A8, 2-{2-[(5-benzyl-4-ethyl-4H-1,2,4-triazol-3-yl)sulfanyl]-propanamido}-4H,5H,6H-cyclopenta[b]thiophene-3-carboxamide] | 47
7 | NC(=O)c1c(NC(=O)CSc2nnc3n2CCCCC3)sc2c1CCC2 [1-A10, 2-(2-{5H,6H,7H,8H,9H-[1,2,4]triazolo[4,3-a]azepin-3-ylsulfanyl}acetamido)-4H,5H,6H-cyclopenta[b]thio-phene-3-carboxamide] | 45
8 | CC1CCc2c(sc(NC(=O)CSc3nnc(C4CC4)n3C)c2C(N)=O)C1 (stereo not drawn) [1-A11, 2-{2-[(5-cyclopropyl-4-methyl-4H-1,2,4-triazol-3-yl)sulfanyl]acetamido}-6-methyl-4,5,6,7-tetrahydro-1-benzothiophene-3-carboxamide] | 6
9 | CC(Sc1nnc(N2CCCCC2)n1-c1ccccc1)C(=O)Nc1sc2c(c1C(N)=O)CCC2 (stereo not drawn) [1-A12, 2-(2-{[4-phenyl-5-(piperidin-1-yl)-4H-1,2,4-triazol-3-yl]sul-fanyl]propanamido)-4H,5H,6H-cyclopenta[b]thiophene-3-carboxamide] | −8
10 | CC1CCc2c(sc(NC(=O)CSc3nnc(C4CC4)n3-c3ccccc3)c2C#N)C1 (stereo not drawn) [1-B2, N-(3-cyano-6-methyl-4,5,6,7-tetrahydro-1-benzothiophen-2-yl)-2-[(5-cyclopropyl-4-phenyl-4H-1,2,4-triazol-3-yl)sulfanyl]acetamide] | −11
11 | NC(=O)c1c(NC(=O)CSc2nnc(C3CC3)n2-c2ccccc2)sc2c1CCC2 [1-B3, 2-{2-[(5-cyclopropyl-4-phenyl-4H-1,2,4-triazol-3-yl)sulfanyl]acetamido}-4H,5H,6H-cyclopenta[b]thiophene-3-carboxamide] | 90
12 | Cn1c(SCC(=O)Nc2sc3c(c2C(N)=O)CCC3)nnc1C(F)(F)F [1-B4, 2-(2-{[4-methyl-5-(trifluoro-methyl)-4H-1,2,4-triazol-3-yl]sulfanyl}acetamido)-4H,5H,6H-cyclopenta[b]-thiophene-3-carboxamide] | 10
13 | Cn1c(SCC(=O)Nc2sc3c(c2C(=O)NCc2ccccc2)CCCC3)nnc1C1CC1 [1-B5, N-benzyl-2-{2-[(5-cyclopropyl-4-methyl-4H-1,2,4-triazol-3-yl)sulfanyl]acetamido}-4,5,6,7-tetrahydro-1-benzothiophene-3-carboxamide] | −31
14 | COCCNC(=O)c1c(NC(=O)CSc2nnc(C3CC3)n2C)sc2c1CCCC2 [1-B6, 2-{2-[(5-cyclopropyl-4-methyl-4H-1,2,4-triazol-3-yl)sulfanyl]acetamido}-N-(2-methoxyethyl)-4,5,6,7-tetrahydro-1-benzothiophene-3-carboxamide] | 68
15 | CC(Sc1nnc(Cc2cccs2)n1C)C(=O)Nc1sc2c(c1C(N)=O)CCC2 (stereo not drawn) [1-B7, 2-[2-({4-methyl-5-[(thiophen-2-yl)methyl]-4H-1,2,4-triazol-3-yl}sulfanyl)propanamido]-4H,5H,6H-cyclopenta[b]thio-phene-3-carboxamide] | 41
16 | Cc1occc1-c1nnc(SC(C)C(=O)Nc2sc3c(c2C(N)=O)CCC3)n1-c1ccccc1 (stereo not drawn) [1-B8, 2-(2-{[5-(2-methylfuran-3-yl)-4-phenyl-4H-1,2,4-triazol-3-yl]sulfanyl}propanamido)-4H,5H,6H-cyclopenta[b]thio-phene-3-carboxamide] | 20
17 | O=C(NCCSCc1ccccc1F)NC1CCCCC1 [1-B10, 1-cyclohexyl-3-(2-{[(2-fluorophenyl)methyl]sulfanyl}ethyl)urea] | 6
18 | CC1CCc2c(sc(NC(=O)CSc3nc(C4CC4)n(-c4ccccc4)n3)c2C(N)=O)C1 (stereo not drawn) [1-B11, 2-{2-[(5-cyclopropyl-1-phenyl-1H-1,2,4-triazol-3-yl)sulfanyl]acetamido}-6-methyl-4,5,6,7-tetrahydro-1-benzothiophene-3-carboxamide] | −12
19 | N#Cc1c(NC(=O)CSc2nnc(C3CC3)n2-c2ccccc2)sc2c1CCCC2 [1-C1, N-(3-cyano-4,5,6,7-tetrahydro-1-benzothiophen-2-yl)-2-[(5-cyclopropyl-4-phenyl-4H-1,2,4-triazol-3-yl)sulfanyl]acetamide] | 19
20 | Cc1nnc(SCC(=O)Nc2sc3c(c2C(N)=O)CCC3)n1Cc1ccccc1 [1-C2, 2-{2-[(4-benzyl-5-methyl-4H-1,2,4-triazol-3-yl)sulfanyl]acetamido}-4H,5H,6H-cyclopenta[b]thiophene-3-carboxamide] | −18
21 | CC1CCc2c(sc(NC(=O)CSc3nncn3-c3ccccc3)c2C(N)=O)C1 (stereo not drawn) [1-C3, 6-methyl-2-{2-[(4-phenyl-4H-1,2,4-triazol-3-yl)sulfanyl]acetamido}-4,5,6,7-tetrahydro-1-benzothiophene-3-carboxamide] | −9
22 | NC(=O)c1c(NC(=O)CSc2nncn2-c2ccccc2)sc2c1CCC2 [1-C4, 2-{2-[(4-phenyl-4H-1,2,4-triazol-3-yl)sulfanyl]acetamido}-4H,5H,6H-cyclopenta-[b]thiophene-3-carboxamide] | −13
23 | Cc1ccccc1-n1cnnc1SCC(=O)Nc1sc2c(c1C(N)=O)CCC2 [1-C5, 2-(2-{[4-(2-methylphenyl)-4H-1,2,4-triazol-3-yl]sulfanyl}acet-amido)-4H,5H,6H-cyclopenta-[b]thiophene-3-carboxamide] | 12
24 | Cn1c(CC2CCS(=O)(=O)C2)nnc1SCC(=O)Nc1sc2c(c1C(N)=O)CCCC2 (stereo not drawn) [1-C6, 2-[2-({5-[(1,1-dioxo-1λ^6-thiolan-3-yl)methyl]-4-methyl-4H-1,2,4-triazol-3-yl}sulfanyl)-acetamido]-4,5,6,7-tetrahydro-l-benzothiophene-3-carboxamide] | 23
25 | CC(Sc1nnc(C2CC2)n1Cc1ccccc1)C(=O)Nc1sc2c(c1C(N)=O)CCC2 (stereo not drawn) [1-C7, 2-{2-[(4-benzyl-5-cyclopropyl-4H-1,2,4-triazol-3-yl)sulfanyl]-propanamido}-4H,5H,6H-cyclopenta[b]thiophene-3-carboxamide] | −9
26 | NC(=O)c1c(NC(=O)CSc2nnc(Cc3cccs3)n2-c2ccccc2)sc2c1CCC2 [1-C8, 2-[2-({4-phenyl-5-[(thiophen-2-yl)methyl]-4H-1,2,4-triazol-3-yl}sulfanyl)acetamido]-4H,5H,6H-cyclopenta[b]thio-phene-3-carboxamide] | 35
27 | Cc1occc1-c1nnc(SC(C)C(=O)Nc2sc3c(c2C(N)=O)CCC3)n1C (stereo not drawn) [1-C9, 2-(2-{[4-methyl-5-(2-methylfuran-3-yl)-4H-1,2,4-triazol-3-yl]sulfanyl}propanamido)-4H,5H,6H-cyclopenta[b]thio-phene-3-carboxamide] | −3
28 | COC(=O)c1c(NC(=O)CSc2nnc(C)n2-c2ccccc2)sc2c1CCC2 [1-C10, methyl 2-{2-[(5-methyl-4-phenyl-4H-1,2,4-triazol-3-yl)sulfanyl]acetamido}-4H,5H,6H-cyclopenta[b]thiophene-3-carboxylate] | 39
29 | Cn1c(Cc2cccs2)nnc1SCC(=O)Nc1sc2c(c1C(N)=O)CCC2 [1-C11, 2-[2-({4-methyl-5-[(thiophen-2-yl)methyl]-4H-1,2,4-triazol-3-yl}sulfanyl)acetamido]-4H,5H,6H-cyclopenta[b]thio-phene-3-carboxamide] | 1
30 | CC(Sc1nnc(-c2cccs2)n1C1CC1)C(=O)Nc1sc2c(c1C(N)=O)CCC2 (stereo not drawn) [1-C12, 2-(2-{[4-cyclopropyl-5-(thiophen-2-yl)-4H-1,2,4-triazol-3-yl]-sulfanyl}propanamido)-4H,5H,6H-cyclopenta[b]-thiophene-3-carboxamide] | 13
